Experimental findings from PubChem BioAssay (NCI) are described below.

Some test systems named below: ACHN renal; HCC-2998 colon; HCT-116 colon; LOX IMVI melanoma; MDA-MB-435; OVCAR-3 ovarian; OVCAR-5 ovarian; SW-620 colon; TK-10 renal; UACC-257 melanoma.
Experiment in all cases: inhibition of tumour cell growth, NCI panel, 48 h

The structures appear in SMILES notation. Several values for one entry are separate records, joined by “and”; a condition that tells them apart may be missing. Equal entries are not always repeated.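 Briefly, cells in 96-well plates were exposed to five compound concentrations for 48 h, and endpoints were estimated by linear interpolation. GI50 is the concentration that inhibits growth by half. The concentration for full growth arrest is given as TGI.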 A value given as a limit tells only on which side of the number the result lay.

With `CCCCCCCCCCCCOC1C(CNC(=O)C2OC3OC(C)(C)OC3C2NC(=O)CN2CCN(c3ccccn3)CC2)OC2OC(C)(C)OC21` (stereo not drawn), the GI50 in the test on ACHN renal was 1.77 µM; with HCC-2998 colon, 6.18 µM; with HCT-116 colon, 1.61 µM; in the test with LOX IMVI melanoma it was 1.88 µM; in the test on MDA-MB-435, 1.69 µM; in the test with OVCAR-3 ovarian it was 1.54 µM. In addition, the GI50 in the test with OVCAR-5 ovarian was 4.11 µM; in the test with SW-620 colon it was 1.69 µM; with TK-10 renal, 1.76 µM; with UACC-257 melanoma it was 1.81 µM. Also, the TGI was 3.21 µM with ACHN renal; 19.7 µM with HCC-2998 colon; 3.04 µM with HCT-116 colon; 3.53 µM with LOX IMVI melanoma; 3.36 µM in the test on MDA-MB-435; 3.02 µM with OVCAR-3 ovarian. Besides, the TGI with OVCAR-5 ovarian was determined as 8.35 µM; in the test with SW-620 colon, 3.18 µM; in the test on TK-10 renal, 3.27 µM; with UACC-257 melanoma it was 3.49 µM.
Turning to `O=C1Nc2cc(Cl)ccc2Oc2cc(Oc3ccccc3)ccc21`, the GI50 in the test on ACHN renal is 12.2 µM; in the test on HCC-2998 colon, 8.8 µM; in the test with HCT-116 colon, 4.23 µM; with LOX IMVI melanoma, 5.51 µM; in the test with MDA-MB-435, 0.761 µM; with OVCAR-3 ovarian, 2.53 µM. Moreover, the GI50 with OVCAR-5 ovarian was 8.69 µM; with SW-620 colon, 2.73 µM; in the test on TK-10 renal it was 12 µM; in the test with UACC-257 melanoma, 16 µM. The TGI with ACHN renal is 76.6 µM; in the test with HCC-2998 colon, greater than 100 µM; in the test on HCT-116 colon, 32 µM; in the test on LOX IMVI melanoma, greater than 100 µM; in the test on MDA-MB-435, 5.85 µM; with OVCAR-3 ovarian it was 7.32 µM. Moreover, the TGI in the test on OVCAR-5 ovarian was greater than 100 µM; with SW-620 colon, 16.9 µM; in the test on TK-10 renal, 47.3 µM; in the test on UACC-257 melanoma, greater than 100 µM.
Consider `COc1ccc(-c2cc(-c3ccc(O)cc3)nc3nc(=S)[nH]c(N)c23)cc1`, for which the GI50 in the test with ACHN renal was 19.1 µM; with HCC-2998 colon, 16.2 µM; in the test on HCT-116 colon, 15.4 µM; in the test on LOX IMVI melanoma it was 12 µM; with MDA-MB-435, 17.3 µM; in the test with OVCAR-3 ovarian, 16.4 µM. The GI50 with OVCAR-5 ovarian was 32 µM; in the test with SW-620 colon it was 16 µM; in the test with TK-10 renal, 32.2 µM; in the test on UACC-257 melanoma, 17.2 µM. For the same compound, the TGI is 65.5 µM with ACHN renal; 31.9 µM in the test on HCC-2998 colon; 31.3 µM with HCT-116 colon; 30.3 µM in the test on LOX IMVI melanoma; 41.4 µM in the test with MDA-MB-435; 45 µM in the test with OVCAR-3 ovarian. Moreover, the TGI amounted to 74.3 µM with OVCAR-5 ovarian, 33.3 µM in the test with SW-620 colon, 92.9 µM in the test with TK-10 renal and 36.3 µM in the test on UACC-257 melanoma.
For the compound `NC(=O)c1nnn(Cc2cc(Cl)c(C(=O)c3ccc(Cl)cc3)c(Cl)c2)c1N`, the TGI was > 9.09 µM and 35.1 µM in the test on ACHN renal; > 9.09 µM and 17.9 µM in the test on HCC-2998 colon; > 9.09 µM and 35.2 µM with HCT-116 colon; greater than 47.2 µM in the test on LOX IMVI melanoma; greater than 40.7 µM with MDA-MB-435; > 9.09 µM and 25 µM in the test on OVCAR-3 ovarian. The TGI was greater than 53.4 µM in the test with OVCAR-5 ovarian; > 9.09 µM and 50.1 µM in the test on SW-620 colon; > 9.09 µM and 39 µM with TK-10 renal; > 9.09 µM and 33.7 µM with UACC-257 melanoma. Further, the GI50 was 6.15 µM with HCC-2998 colon; greater than 9.09 µM in the test on HCT-116 colon; greater than 9.09 µM in the test on LOX IMVI melanoma; greater than 9.09 µM in the test on OVCAR-3 ovarian; greater than 9.09 µM with OVCAR-5 ovarian; greater than 9.09 µM with SW-620 colon. In addition, the GI50 is greater than 9.09 µM with TK-10 renal and 6.96 µM in the test with UACC-257 melanoma.
Consider `CS(=O)(=O)N1CCN(Cc2cc3nc(-c4cccc5[nH]ncc45)nc(N4CCOCC4)c3s2)CC1`, for which the GI50 in the test with ACHN renal is 0.382 µM and 0.319 µM; in the test with HCC-2998 colon it was 0.614 µM and 0.153 µM; in the test with HCT-116 colon it was 1.72 µM and 0.494 µM; in the test on LOX IMVI melanoma it was 0.456 µM and 0.32 µM; in the test on MDA-MB-435, 0.728 µM and 0.276 µM; in the test with OVCAR-3 ovarian, 0.245 µM and 0.194 µM. In addition, the GI50 in the test with OVCAR-5 ovarian is 0.357 µM and 0.234 µM; in the test with SW-620 colon, 1.29 µM and 0.484 µM; in the test with TK-10 renal, 0.11 µM and 0.0949 µM; with UACC-257 melanoma, 0.184 µM and 0.162 µM. Besides, the TGI in the test with ACHN renal is greater than 100 µM; in the test on HCC-2998 colon, greater than 100 µM; with HCT-116 colon, greater than 100 µM; in the test on LOX IMVI melanoma, greater than 100 µM; in the test on MDA-MB-435, greater than 100 µM; with OVCAR-3 ovarian, 3.82 µM and > 5.15 µM. The TGI in the test with OVCAR-5 ovarian is greater than 100 µM; with SW-620 colon it was greater than 100 µM; with TK-10 renal, 0.789 µM and 0.74 µM; in the test on UACC-257 melanoma, 2.77 µM and > 2.32 µM.
Take `C(=N/Nc1ncnc2nc[nH]c12)/c1ccccn1`: the GI50 with ACHN renal is 1.19 µM; with HCC-2998 colon, 0.422 µM; with HCT-116 colon, 0.46 µM; in the test with LOX IMVI melanoma it was 0.525 µM; in the test with MDA-MB-435 it was 1.08 µM; in the test on OVCAR-3 ovarian, 0.421 µM. The GI50 is 1.02 µM with OVCAR-5 ovarian, 1.71 µM with SW-620 colon, 0.452 µM in the test with TK-10 renal and 1.87 µM in the test with UACC-257 melanoma. For the same compound, the TGI with ACHN renal is 14.1 µM; with HCC-2998 colon, greater than 36.8 µM; in the test with HCT-116 colon it was greater than 100 µM; with LOX IMVI melanoma, greater than 100 µM; in the test on MDA-MB-435, greater than 100 µM; in the test with OVCAR-3 ovarian it was greater than 47 µM. In addition, the TGI in the test with OVCAR-5 ovarian was greater than 100 µM; in the test with SW-620 colon it was greater than 100 µM; with TK-10 renal, greater than 100 µM; with UACC-257 melanoma it was 7.96 µM.
Regarding `Cc1ccc(Cl)cc1Nc1nc(C(F)(F)F)ccc1C(=O)N/N=C/c1c(Cl)cccc1Cl`, the GI50 in the test on ACHN renal is 1.08 µM; in the test on HCC-2998 colon, 1.24 µM; with HCT-116 colon, 0.355 µM; in the test on LOX IMVI melanoma it was 0.648 µM; in the test on MDA-MB-435, 2.15 µM; with OVCAR-3 ovarian, 0.285 µM. The GI50 was 2.21 µM with OVCAR-5 ovarian, 0.475 µM with SW-620 colon, 1.4 µM with TK-10 renal and 2.49 µM with UACC-257 melanoma. Moreover, the TGI turned out to be 6.14 µM in the test with ACHN renal; 31.5 µM with HCC-2998 colon; 1.58 µM with HCT-116 colon; 5.15 µM in the test on LOX IMVI melanoma; 11.6 µM with MDA-MB-435; 2.7 µM in the test on OVCAR-3 ovarian. Also, the TGI in the test on OVCAR-5 ovarian was found to be 20.4 µM; with SW-620 colon, 12.2 µM; with TK-10 renal, 7.39 µM; in the test on UACC-257 melanoma, 7.69 µM.
